Assay results from patent publication US9579406B2, “Phospholipid ether analogs as agents for detecting and locating cancer, and methods thereof” (Cellectar, Inc., priority 2004, dated 2017).
“Also recorded” adds a separate entry of the source.

Experiments:
[1] = test system: A549 (human non-small cell lung cancer); assay: Radiotherapy study in A549 SCID mouse xenograft model; type: in vivo
Procedure: Stimulated by these and other observations, the inventors recently conducted a small ^125I-NM404 pilot therapy study in SCID mice with human A549 lung tumor xenografts. ^125I-NM404 was administered as either a single dose or alternatively in 3 doses (once a week for 3 weeks) to groups of 6 mice and a separate cohort received an equivalent mass dose of unlabeled NM404 for comparison. Single doses were 50 or 500 μCi and the repeat dose group received a total of 3 weekly 50 μCi doses. Tumor growth was monitored for 10 weeks following final injection. […] New arms are now being initiated to cover the dose levels between the current ones in order to more accurately evaluate the therapeutic potential of this agent.
A549 (human non-small cell lung cancer, NSCLC, from ATCC) are maintained in Ham's F-12K media supplemented with 10% fetal bovine serum. […]. Animals are given free access to food and water, tumor growth and animal weight are monitored. […].
The tumor model used for this study was A549, a human non-small cell lung cancer, (NSCLC) obtained from ATCC (Manassas, Va.). The tumor cells are maintained in Ham's F-12K media supplemented with 10% fetal bovine serum. […]. Animals are given free access to food and water. Upon reaching 5-10 mm in tumor diameter, mice will be enrolled in the study.
A single intravenous injection of SF404A was performed at Day 0. For the control group, cold compound (C-NM404) has been injected. For treatment groups I-125-NM404 has been injected.
The study contained 5 groups; 4 treatment groups (n=6/group) and 1 control group (n=9). The iodine doses for the treatment groups were 50, 150, 250 and 500 μCi per mouse. The control group was dosed with an equivalent mass amount of C-NM404 (0 μCi).
Assessments were made until 10 weeks post-injection or until no animal in the control group is alive, whatever comes first. […]

[2] = test system: SCC1 and SCC6 squamous cell tumors; assay: SCC1 and SCC6 xenografts in nude mice, single injection; type: in vivo
Description: Due to its 60-day physical half-life and low energy 35 KeV photon emission, iodine-125 is suitable for imaging experiments in mice and rats. Iodine-125 also affords therapeutic characteristics. In one imaging experiment (FIG. 6), 2 nude mice were each inoculated with subcutaneous squamous cell lines SCC1 and SCC6 tumor cell implants on opposing flanks. SCC1 and SSC6 cells were used because one is radiosensitive relative to the other. After 14 days when the average tumor size was approaching 0.5 cm in diameter, one of the mice received 20 μCi of I-125-NM-404 and the other one receive unlabeled NM404 in an equal mass dose. The mouse receiving the unlabeled cold compound had to be euthanized 20 days after injection due to both tumors reaching the termination size limit as defined in the animal use protocol. […] This mouse never did reach terminal tumor size and the mouse was actually euthanized after 90 days in order to collect histology sections.

[3] = test system: xenograft and spontaneous tumor models; assay: Imaging and tissue distribution across preclinical animal tumor models; type: in vivo
[4] = type: in vivo, human
Cervical = assay: Tumor models examined with NM404 (Table 2); type: in vivo, Transgenic mouse; settings: Adenocarcinoma
Description: (§1) NM404 has now been evaluated in 27 animal tumor models, including several lung, and it is clear that once the agent enters tumor cells, it reaches a metabolic dead end and becomes trapped. […] NM404 is also retained in spontaneous murine lung tumors (FIG. 13). Using ^125I-labeled NM404, the inventors have been able to image mammary and prostate tumors in mice in excess of 60 days. […] Imaging and tissue distribution studies performed in mouse models aimed at determining the uptake characteristics in a wide variety of tumor models are summarized in Table 2.
(§2) Although tumor retention can be explained by a lack of metabolic phospholipase enzymes in the tumor cell membranes, the exact mechanism of tumor cell uptake is unknown. […] The inventors are currently evaluating the selectivity of NM404 in a unique mouse tumor model developed at Wisconsin, wherein both preneoplastic hyperplasias and malignant adenocarcinomas form spontaneously in the mammary gland. […] If this initial observation is validated, then via genomic and or proteomic analysis the inventors may be able to identify a key genetic difference between malignant tumors and their non malignant predecessor cells. This could identify a completely new molecular therapeutic target that may be universal for all types of cancer.

Min Mouse Intestinal = assay: Tumor models examined with NM404 (Table 2); type: in vivo, Transgenic mouse; settings: Adenocarcinoma
Description: as §1, §2

Pancreas c-myc/k-ras = assay: Tumor models examined with NM404 (Table 2); type: in vivo, Transgenic mouse; settings: Ductal/acinar
Description: as §1, §2

Retinoblastoma = assay: Tumor models examined with NM404 (Table 2); type: in vivo, Transgenic mouse; settings: Blastoma
Description: as §1, §2

TGFα Hepatoma = assay: Tumor models examined with NM404 (Table 2); type: in vivo, Transgenic mouse
Description: as §1, §2

TRAMP prostate = assay: Tumor models examined with NM404 (Table 2); type: in vivo, Transgenic mouse; settings: Adenocarcinoma
Description: as §1, §2

Liver CT-26 = assay: Tumor models examined with NM404 (Table 2); type: in vivo, Mouse xenograft; settings: Colorectal adenocarcinoma
Description: as §1, §2

LuCaP prostate = assay: Tumor models examined with NM404 (Table 2); type: in vivo, Mouse xenograft; settings: Adenocarcinoma
Description: as §1, §2

Melanoma B16 = assay: Tumor models examined with NM404 (Table 2); type: in vivo, Mouse xenograft; settings: Adenocarcinoma
Description: as §1, §2

Glioma L9 and CNS-1 = assay: Tumor models examined with NM404 (Table 2); type: in vivo, Rat xenograft
Description: as §1, §2

For `C[N+](C)(C)CCOP(=O)([O-])OCCCCCCCCCCCCCCCCCCc1ccc([125I])cc1` [Compound I-125-NM404], the “dose relationship of effect on tumor volume” value ([1]; 50-500 μCi) was “dose-linear effect”, the average tumor volume ([1]; 50 μCi (n = 4), week 0) was 198 mm^3 and the “treatment effect on tumor volume” value ([1]; 50 μCi single injection, 10 weeks) was “did not show any difference to control animals”. It also gave an average tumor volume ([1]; 50 μCi, week 1) of 599 mm^3, an average tumor volume ([1]; 50 μCi, week 2) of 691 mm^3 and an average tumor volume ([1]; 50 μCi, week 3) of 987 mm^3. For the same compound, the average tumor volume ([1]; 50 μCi, week 4) was 2283 mm^3, the average tumor volume ([1]; 50 μCi, week 5) was 3977 mm^3 and the average tumor volume ([1]; 50 μCi, week 6) was 4951 mm^3. It also gave an average tumor volume ([1]; 50 μCi, week 7) of 6999 mm^3, an average tumor volume ([1]; 50 μCi, week 8) of 8188 mm^3 and an average tumor volume ([1]; 50 μCi, week 9) of 9978 mm^3. For the same compound, the average tumor volume ([1]; 50 μCi, week 10) was 8342 mm^3, the tumor growth ([1]; 150 microCi, large tumors (>1 cm)) was “did not show any effects” and the tumor growth ([1]; 150 microCi, small tumors (<1 cm)) was “stunned tumor growth”. For the same compound, the average tumor volume ([1]; 150 μCi (n = 5), week 0) was 1699 mm^3, the average tumor volume ([1]; 150 μCi, week 1) was 1847 mm^3 and the average tumor volume ([1]; 150 μCi, week 2) was 2430 mm^3. The average tumor volume ([1]; 150 μCi, week 3) was 2758 mm^3, the average tumor volume ([1]; 150 μCi, week 4) was 4144 mm^3 and the average tumor volume ([1]; 150 μCi, week 5) was 4478 mm^3. The average tumor volume ([1]; 150 μCi, week 6) was 4668 mm^3, the average tumor volume ([1]; 150 μCi, week 7) was 4817 mm^3 and the average tumor volume ([1]; 150 μCi, week 8) was 6049 mm^3. The average tumor volume ([1]; 150 μCi, week 9) was 7780 mm^3, the average tumor volume ([1]; 150 μCi, week 10) was 6894 mm^3 and the average tumor volume ([1]; 250 μCi (n = 6), week 0) was 360 mm^3. For the same compound, the “treatment effect on tumor volume” value ([1]; 250 μCi single injection) was “substantial and prolonged treatment effect”, the “effect on the tumor” value ([1]; 250 μCi, 4 weeks following injection) was “causes central necrosis” and the average tumor volume ([1]; 250 μCi, week 2) was 756 mm^3. For the same compound, the average tumor volume ([1]; 250 μCi, week 3) was 821 mm^3, the average tumor volume ([1]; 500 μCi (n = 5), week 0) was 1041 mm^3 and the signs of toxicity ([1]; 500 μCi dose) was “none of the mice showed any signs of toxicity”. For the same compound, the “treatment effect on tumor volume” value ([1]; 500 μCi single injection) was “substantial and prolonged treatment effect”, the average tumor volume ([1]; 500 μCi, week 1) was 964 mm^3 and the average tumor volume ([1]; 500 μCi, week 2) was 1281 mm^3. The average tumor volume ([1]; 500 μCi, week 3) was 1110 mm^3, the average tumor volume ([1]; 500 μCi, week 4) was 1300 mm^3 and the average tumor volume ([1]; 500 μCi, week 5) was 1626 mm^3. For the same compound, the average tumor volume ([1]; 500 μCi, week 6) was 1735 mm^3, the average tumor volume ([1]; 500 μCi, week 7) was 1697 mm^3 and the tumor growth ([1]; pilot study, single 500 μCi dose) was “significant regression in tumor growth”. For the same compound, the tumor response ([2]; single injection 20 μCi, listed as 125I-NM404) was “regressed significantly; also recorded: regressed dramatically; also recorded: significantly reduced”, the “time over which tumors could be imaged” value ([3]; mammary and prostate tumors in mice) was > 60 days and the “period of prolonged tumor retention post-injection” value ([3]; mice) was 20 to 60 days.
For `C[N+](C)(C)CCOP(=O)([O-])OCCCCCCCCCCCCCCCCCCc1ccc(I)cc1` [NM-404, 18-(4-iodophenyl)-octadecylphosphocholine], the half-life ([4]; human, plasma, intravenous, 0.3 μg/kg, average, read-out: plasma elimination half life time (converted)) was 113 h, the agent cleared renally ([4]; within 4 days of iv injection) was 4% and the “effect on tumor growth” value ([1]; 0 μCi, equivalent mass dose, 10 weeks) was “no substantial effect on tumors growth”. For the same compound, the “therapy effect of fractionated dosing versus single dose” value ([1]; 3×50 micro-Ci versus single 150 micro-Ci) was “produced the same therapy effect”, the average tumor volume ([1]; Control 0 μCi (n = 7), week 0) was 1152 mm^3 and the average tumor volume ([1]; Control 0 μCi, week 1) was 1289 mm^3. For the same compound, the average tumor volume ([1]; Control 0 μCi, week 2) was 1667 mm^3, the average tumor volume ([1]; Control 0 μCi, week 3) was 2418 mm^3 and the average tumor volume ([1]; Control 0 μCi, week 4) was 3169 mm^3. It also gave an average tumor volume ([1]; Control 0 μCi, week 5) of 3763 mm^3, an average tumor volume ([1]; Control 0 μCi, week 6) of 4971 mm^3 and an average tumor volume ([1]; Control 0 μCi, week 7) of 6207 mm^3. For the same compound, the average tumor volume ([1]; Control 0 μCi, week 8) was 6253 mm^3, the average tumor volume ([1]; Control 0 μCi, week 9) was 7175 mm^3 and the average tumor volume ([1]; Control 0 μCi, week 10) was 7068 mm^3. The “time to euthanasia due to both tumors reaching termination size limit” value ([2]; unlabeled, equal mass dose) was 20 days, the “uptake of injected dose into the tumor tissue” value ([3]; in vivo) was 10-25% and the “localization in infectious / inflammatory sites” value ([3]; preclinical models) was “does not localize in infectious sites; also recorded: is not retained in inflammatory tissues”. The “retention in normal, premalignant or hyperplastic tissues” value ([3]; preclinical models) was “is not retained in normal, premalignant, or hyperplastic tissues”, the “NM404 Tumor Localization” value (Cervical) was “Yes (Localization defined as >5% injected dose per gram tumor basis based on tissue distribution data)” and the “NM404 Tumor Localization” value (Min Mouse Intestinal) was “Yes (Localization defined as >5% injected dose per gram tumor basis based on tissue distribution data)”. The “NM404 Tumor Localization” value (Pancreas c-myc/k-ras) was “Yes (Localization defined as >5% injected dose per gram tumor basis based on tissue distribution data)”, the “NM404 Tumor Localization” value (Retinoblastoma) was “Yes (Localization defined as >5% injected dose per gram tumor basis based on tissue distribution data)” and the “NM404 Tumor Localization” value (TGFα Hepatoma) was “Yes (Localization defined as >5% injected dose per gram tumor basis based on tissue distribution data)”. The “NM404 Tumor Localization” value (TRAMP prostate) was “Yes (Localization defined as >5% injected dose per gram tumor basis based on tissue distribution data)”, the “NM404 Tumor Localization” value (Liver CT-26) was “Yes (Localization defined as >5% injected dose per gram tumor basis based on tissue distribution data)” and the “NM404 Tumor Localization” value (LuCaP prostate) was “Yes (Localization defined as >5% injected dose per gram tumor basis based on tissue distribution data)”. The “NM404 Tumor Localization” value (Melanoma B16) was “Yes (Localization defined as >5% injected dose per gram tumor basis based on tissue distribution data)” and the “NM404 Tumor Localization” value (Glioma L9 and CNS-1) was “Yes (Localization defined as >5% injected dose per gram tumor basis based on tissue distribution data)”.
